Results from patent US20060018940A1, “Stabilized antimicrobial composition” (E. I. DU PONT DE NEMOURS AND COMPANY, priority 2004, published 2006).
“And” between values parts separate entries of the source, which are not always exact repeats. Equal entries are not always repeated. “Also recorded” adds a separate entry of the source. Where two headings read alike, the source gives them in different places.

How the values were obtained:
Assay type in all cases: cell-based
[1] = tested on: Pseudomonas aeruginosa ATCC 15442; experiment: Bacterial efficacy, suspension test (modified AOAC 965.13), plate count on TSA
[2] = tested on: Salmonella choleraesuis ATCC 10708
[3] = tested on: Aspergillus fumigatus ATCC 1098; experiment: Fungicidal activity (modified AOAC Method 955.17), surviving spores; settings: for reduction of the fungal bioburden (words): within 15 minutes of treatment, amounts equivalent to those in the tablet solution
Experimental: This assay had several modifications from the published AOAC Fungicidal Activity of Disinfectants Protocol, Method 955.17. Aspergillus fumigatus ATCC 1098 was grown on Malt Extract Agar (available from Becton Dickinson, Billerica, Mass.) plates, and spores were harvested. Spores were stored in filter-sterilized Millipore water at −20° C. The spore preparation used for this experiment is detailed below. A freezer stock of A. fumigatus was defrosted and diluted to obtain an inoculum suspension for this experiment. The inoculum preparation was estimated to be approximately 5×10^6 conidia/mL. The following test solutions were prepared using filter sterilized Millipore water in steam-sterilized 4L bottles:
Water Control: (filter-sterilized water only), pH 6.28.
OXONE Control: 3.78 grams OXONE in 1 gallon (3.8L) sterile water, buffered to pH 4.43 using 0.98 g sodium bicarbonate and +5.25 g 10% H2SO4).
Chlorite Control: 0.26 grams of sodium chlorite in 1 gallon sterile water buffered to pH 4.55 (1.8 g 10% H2SO4).
Buffer Control: sodium bicarbonate, pH adjusted to 4.4.
Chlorine Dioxide: anthium dioxide (stabilized sodium chlorite available from IDI, North Kingston, R.I.) was acidified with HCl.
CLOROX control: 4.17% CLOROX bleach available from Clorox Company, Oakland, Calif. (v/v) in Millipore water by mixing 4.17 mL of Clorox bleach and water up to 100 mL total volume.
Tablet test Solution (Example 21: 2 tablets of Example 6 were dissolved in one gallon (3.8 L) of deionized water. The total tablet weight was 5.13 grams. The pH of the resulting solution was 5.2.
Reaction tubes: 5 mL of each test solution was aliquoted into 25×150 mm test culture tubes, capped and labeled according to Table 10. 9 mL of D/E (Dey/Engley) Neutralizing Broth (available from Becton Dickinson, Billerica, Mass.) was added to each of 28 test tubes and the tubes were capped. Butterfield buffer blanks were arranged for dilution of neutralized samples, and Malt Extract Agar plates were numbered for spore enumerations of the diluted, neutralized samples. With a graduated pipette, 0.5 mL of spore inoculum (approx. 10^6 condia/mL) was added to the first tube of test solution and gently shaken. After 5 and 15 minute exposures to the respective test solutions, samples were gently shaken and 1 mL samples were removed from each reaction mixture (spore-test solution) using an Eppendorf pipette and placed in 9 mL D/E (Dey/Engley) Neutralizing Broth. The inoculum was further diluted to approximately 10^4 condia/mL. Two more reaction tubes (water and OXONE-chlorite) and four Dey/Engley neutralization tubes were prepared to evaluate the efficacy of the tablet solution versus a final inoculum density of 10^3 condia/mL in the reaction tube. Samples were reacted for 15 minutes only. Dilutions of neutralized samples were prepared. Two 100 μL aliquots of all samples in D/E (Dey/Engley) Neutralizing Broth were plated on Malt Extract Agar and incubated at 25 °C until the appearance of colonies. Plates were counted after colonies appeared, roughly 4 days after incubation. Several dilutions of the inoculum spore suspensions were also plated on Malt Extract Agar to obtain an accurate count of viable spores used as inoculum. The samples were incubated at 25° C. and counted after the appearance of colonies, after about 4 days of incubation.
Buffer control data was taken after 15 minutes. CLOROX control data was taken after 5 minutes of treatment.

[4] = tested on: Staphylococcus aureus ATCC 6538; experiment: Bacterial efficacy, suspension test (modified AOAC 965.13), plate count on TSA
[5] = 30 sec exposure, 1,008 ppm Oxone, 55.5 ppm Chlorite, 23.2 ppm ClO2
[6] = 30 sec exposure, 1,008 ppm Oxone, 55.5 ppm Chlorite, 23.2 ppm ClO2, low level of detection 1.0E+01
[7] = 10 min exposure, 1,008 ppm Oxone, 55.5 ppm Chlorite, 23.2 ppm ClO2
[8] = 10 min exposure, 1,008 ppm Oxone, 55.5 ppm Chlorite, 23.2 ppm ClO2, low level of detection 1.0E+01
[9] = 5 min, 1 × 10^6 conidia/mL inoculum in reaction mix, 2 replicates average, 2 Tabs 3.8 L, OXONE 3.78 g/gallon, chlorite 0.26 g/gallon, ClO2 ~23 ppm, 4.17% CLOROX
[10] = 15 min, 1 × 10^6 conidia/mL inoculum in reaction mix, 2 replicates average, 2 Tabs 3.8 L, OXONE 3.78 g/gallon, chlorite 0.26 g/gallon, ClO2 ~23 ppm
[11] = 30 sec exposure, Example 20 = 1,008 ppm Oxone + 55.5 ppm Chlorite, controls 1,008 ppm Oxone, 55.5 ppm Chlorite, 23.2 ppm ClO2, low level of detection 1.0E+01

[O][Cl+][O-] [ClO2, chlorine dioxide]
CFU/mL [1]: 1.00E+01 CFU/mL | Δt (log difference test and control densities) [1]: 5 log and 5.0 log and 5.1 log | CFU/mL [2]: 1.00E+01 CFU/mL | Δt (log difference test and control densities) [2]: 5.1 log and 5.3 log | Surviving bioburden counts (germinating spores - conidia/mL) [3]: 0.00E+00 conidia/mL | log A. fumigatus spores killed [3]: 5 log | CFU/mL [4]: 1.00E+01 CFU/mL | Δt (log difference test and control densities) [4]: 5.1 log and 5.2 log

sodium chlorite
Δt (log difference test and control densities) [1, 5]: −0.1 log | CFU/mL [1, 6]: 1.17E+06 CFU/mL | Δt (log difference test and control densities) [1, 7]: 0.0 log | CFU/mL [1, 8]: 1.21E+06 CFU/mL | Δt (log difference test and control densities) [2, 5]: −0.3 log | CFU/mL [2, 6]: 3.09E+06 CFU/mL | Δt (log difference test and control densities) [2, 7]: 0.2 log | CFU/mL [2, 8]: 1.27E+06 CFU/mL | Surviving bioburden counts (germinating spores - conidia/mL) [3, 9]: 4.25E+05 conidia/mL | Surviving bioburden counts (germinating spores - conidia/mL) [3, 10]: 6.25E+05 conidia/mL | reduction of the fungal bioburden (words) ([3]; listed as chlorite): not able to reduce the bioburden | reduction of the fungal bioburden (words) ([3]; listed as sodium chlorite): ineffective in reducing the fungal bioburden | Δt (log difference test and control densities) [4, 5]: 0.0 log | CFU/mL [4, 11]: 1.23E+06 CFU/mL | Δt (log difference test and control densities) [4, 7]: 0.1 log | CFU/mL [4, 8]: 1.20E+06 CFU/mL

triple salt of potassium monopersulfate, potassium hydrogen sulfate and potassium sulfate [Oxone]
Δt (log difference test and control densities) [1, 5]: 0.0 log | CFU/mL [1, 6]: 9.50E+05 CFU/mL | Δt (log difference test and control densities) [1, 7]: 5.1 log | CFU/mL [1, 8]: 1.00E+01 CFU/mL | Surviving bioburden counts (germinating spores - conidia/mL) [3, 9]: 3.45E+05 conidia/mL | Surviving bioburden counts (germinating spores - conidia/mL) [3, 10]: 5.70E+05 conidia/mL | reduction of the fungal bioburden (words) [3]: not able to reduce the bioburden; also recorded: ineffective in reducing the fungal bioburden | Δt (log difference test and control densities) [4, 5]: 0.0 log | CFU/mL [4, 11]: 1.52E+06 CFU/mL | Δt (log difference test and control densities) [4, 7]: 0.4 log | CFU/mL [4, 8]: 6.15E+05 CFU/mL
